In brackets after ≈: the same amount, converted by molar mass. Activity calls are given as the source filed them. The rule behind the calls is not given here. Peptide text beside a SMILES is read from it.

Drawing on ChEMBL document CHEMBL3593201, “Isolation, Characterization, and Synthesis of the Barrettides: Disulfide-Containing Peptides from the Marine Sponge Geodia barretti” (J Nat Prod, 2015), this text covers inhibition, Activity and MIC for three molecules.

Data set [1] relates to Amphibalanus improvisus. Nature of the data set: Anti-fouling activity against Balanus improvisus barnacle larvae assessed as inhibition of settlement propensity at 6 uM incubated for 4 days. It counts as functional, organism-based.
In data set [2] the test system is Amphibalanus improvisus. The data set can be described thus: Toxicity against Balanus improvisus barnacle larvae assessed as number of dead larvae at 0.06 to 6 uM incubated for 24 hrs. Format: organism-based. Conditions: in vivo.
Data set [3] concerns Staphylococcus aureus. The data set can be described thus: Antimicrobial activity against Staphylococcus aureus ATCC 29213 up to 80 uM. It counts as functional, organism-based.
The test system of data set [4] is Escherichia coli. Nature of the data set: Antimicrobial activity against Escherichia coli ATCC 25922 up to 80 uM. Format: functional, organism-based.
For data set [5], the system named is Amphibalanus improvisus. The data set can be described thus: Anti-fouling activity against Balanus improvisus barnacle larvae assessed as settlement propensity at 6 uM incubated for 4 days (reference value: 64 +/- 8%). It counts as functional.
The subject of data set [6] is Amphibalanus improvisus. Nature of the data set: Anti-fouling activity against Balanus improvisus barnacle larvae assessed as inhibition of settlement propensity at 0.6 uM incubated for 4 days. It counts as functional, organism-based.
Data set [7] deals with Escherichia coli. Nature of the data set: Antimicrobial activity against Escherichia coli ATCC 25922. It counts as functional.
The subject of data set [8] is Staphylococcus aureus. Nature of the data set: Antimicrobial activity against Staphylococcus aureus ATCC 29213. Format: functional.

In the case of `[H][C@@]12CCCN1C(=O)[C@H](CC(C)C)NC(=O)[C@]1([H])CSSC[C@]([H])(NC(=O)[C@H](Cc3ccccc3)NC(=O)[C@@H](NC(=O)[C@@H]3CCCN3C(=O)[C@H](CO)NC(=O)[C@@H](NC(=O)[C@@H](N)CC(=O)O)C(C)C)CSSC[C@@H](C(=O)N[C@@H](CC(=O)O)C(=O)N[C@@H](C)C(=O)N[C@@H](CO)C(=O)N[C@@H](CCCNC(=N)N)C(=O)NCC(=O)N[C@H](C(=O)N[C@@H](CC(N)=O)C(=O)N3CCC[C@H]3C(=O)O)[C@@H](C)O)NC(=O)[C@H](CC(N)=O)NC(=O)[C@H](CC(=O)O)NC2=O)C(=O)N[C@@H](C(C)C)C(=O)N[C@@H](CCC(=O)O)C(=O)N[C@@H](CC(=O)O)C(=O)N[C@@H](CCC(=O)O)C(=O)N[C@@]([H])([C@@H](C)O)C(=O)N[C@@H](CO)C(=O)NCC(=O)N[C@@H](C)C(=O)N[C@@H](CCCCN)C(=O)N[C@@]([H])([C@@H](C)O)C(=O)N1` (HELM PEPTIDE1{D.V.S.P.C.F.C.V.E.D.E.T.S.G.A.K.T.C.L.P.D.N.C.D.A.S.R.G.T.N.P}$PEPTIDE1,PEPTIDE1,5:R3-23:R3|PEPTIDE1,PEPTIDE1,7:R3-18:R3$$$V2.0), the inhibition entry with Amphibalanus improvisus [1] was “Active”. Besides, the Activity result is “Non-toxic” with Amphibalanus improvisus [2] and 8% with Amphibalanus improvisus [5]. For the same molecule, the outcome in the data set on Staphylococcus aureus [3] and in the data set with Escherichia coli [4] was inactive.

For `[H][C@@]12CCCN1C(=O)[C@H](C(C)C)NC(=O)[C@]1([H])CSSC[C@]([H])(NC(=O)[C@H](Cc3ccccc3)NC(=O)[C@@H](NC(=O)[C@@H]3CCCN3C(=O)[C@H](CO)NC(=O)[C@@H](NC(=O)[C@@H](N)CC(=O)O)C(C)C)CSSC[C@@H](C(=O)N[C@@H](CC(=O)O)C(=O)N[C@@H](C)C(=O)N[C@@H](CO)C(=O)N[C@@H](CCCNC(=N)N)C(=O)NCC(=O)N[C@H](C(=O)N[C@@H](CC(N)=O)C(=O)N3CCC[C@H]3C(=O)O)[C@@H](C)O)NC(=O)[C@H](CC(N)=O)NC(=O)[C@H](CC(=O)O)NC2=O)C(=O)N[C@@H](C(C)C)C(=O)N[C@@H](CCC(=O)O)C(=O)N[C@@H](CC(=O)O)C(=O)N[C@@H](CCC(=O)O)C(=O)N[C@@]([H])([C@@H](C)O)C(=O)N[C@@H](CO)C(=O)NCC(=O)N[C@@H](C)C(=O)N[C@@H](CCCCN)C(=O)N[C@@]([H])([C@@H](C)O)C(=O)N1` (HELM PEPTIDE1{D.V.S.P.C.F.C.V.E.D.E.T.S.G.A.K.T.C.V.P.D.N.C.D.A.S.R.G.T.N.P}$PEPTIDE1,PEPTIDE1,5:R3-23:R3|PEPTIDE1,PEPTIDE1,7:R3-18:R3$$$V2.0), the inhibition result with Amphibalanus improvisus [1] and in the data set with Amphibalanus improvisus [6] was “Active” throughout. The values for the Activity entry in the data set with Amphibalanus improvisus [2] and in the data set on Amphibalanus improvisus [5] were “Non-toxic” and 15%, respectively. In addition, the result in the data set with Staphylococcus aureus [3] and with Escherichia coli [4] was inactive.

`CC[C@H](C)[C@H](NC(=O)[C@H](CCCCN)NC(=O)[C@H](CCC(=O)O)NC(=O)[C@H](CCCCN)NC(=O)[C@H](CO)NC(=O)[C@H](CCCCN)NC(=O)[C@H](CCCNC(=N)N)NC(=O)[C@H](Cc1ccccc1)NC(=O)[C@H](Cc1ccccc1)NC(=O)[C@H](CC(=O)O)NC(=O)CNC(=O)[C@H](CC(C)C)NC(=O)[C@@H](N)CC(C)C)C(=O)NCC(=O)N[C@@H](CCCCN)C(=O)N[C@@H](CCC(=O)O)C(=O)N[C@@H](Cc1ccccc1)C(=O)N[C@@H](CCCCN)C(=O)N[C@@H](CCCNC(=N)N)C(=O)N[C@H](C(=O)N[C@H](C(=O)N[C@@H](CCC(N)=O)C(=O)N[C@@H](CCCNC(=N)N)C(=O)N[C@H](C(=O)N[C@@H](CCCCN)C(=O)N[C@@H](CC(=O)O)C(=O)N[C@@H](Cc1ccccc1)C(=O)N[C@@H](CC(C)C)C(=O)N[C@@H](CCCNC(=N)N)C(=O)N[C@@H](CC(N)=O)C(=O)N[C@@H](CC(C)C)C(=O)N[C@H](C(=O)N1CCC[C@H]1C(=O)N[C@@H](CCCNC(=N)N)C(=O)N[C@H](C(=O)N[C@@H](CCC(=O)O)C(=O)N[C@@H](CO)C(=O)O)[C@@H](C)O)C(C)C)[C@@H](C)CC)C(C)C)[C@@H](C)CC` [CATHELICIDIN]: the MIC with Escherichia coli [7] and in the data set on Staphylococcus aureus [8] was 1 µM (≈ 4.49 µg/mL) in each case.
